Six compounds from patent US20230064983A1 (priority 2020, published 2023) can be followed below.

The target of one assay is Ba/F3-EGFR-L858R cells (Homo sapiens, UniProt P00533, L858R, cells depend on it). The experiment in a line: Ba/F3 cell survival assay, EGFR L858R. It counts as cell-based. Conditions: classical activating and rare EGFR mutations; Table 7; read-out: BA/F3 (EGFR L858R) IC50.
Another assay deals with T1, Bub1 (Homo sapiens, UniProt O43683).
T1 construct: catalytic domain of human Bub1 (amino acids 704-1085); His6 (N); made in house; host or cells: insect cells (Hi5)
T1 sequence (O43683 704-1085): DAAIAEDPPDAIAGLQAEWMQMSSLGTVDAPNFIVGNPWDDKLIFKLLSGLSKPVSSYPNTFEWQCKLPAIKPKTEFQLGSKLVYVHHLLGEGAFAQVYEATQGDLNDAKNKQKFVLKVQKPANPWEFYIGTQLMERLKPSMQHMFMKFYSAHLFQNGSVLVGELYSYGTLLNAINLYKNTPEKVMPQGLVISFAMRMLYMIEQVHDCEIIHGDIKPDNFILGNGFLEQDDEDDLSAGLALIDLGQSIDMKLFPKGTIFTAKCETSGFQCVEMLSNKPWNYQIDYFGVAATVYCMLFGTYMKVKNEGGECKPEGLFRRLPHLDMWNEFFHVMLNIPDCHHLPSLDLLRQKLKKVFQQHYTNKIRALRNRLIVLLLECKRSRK
Kind of assay: Bub1 high ATP kinase assay (TR-FRET). It counts as biochemical. To be noted: Bub1 high ATP (2 mM) IC50, TR-FRET, 2 mM ATP; Table 3. A digest of the protocol:
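Read-out was the 665/620 nm TR-FRET ratio after 1 h at 22 °C with EDTA stop mix (streptavidin-XL665, anti-phosphoserine antibody, Eu anti-mouse IgG). Beforehand, a biotinylated peptide was phosphorylated for 60 min at 22 °C under high ATP by His6-tagged human Bub1 residues 704-1085 expressed in Hi5 cells, about 200 ng/ml.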

For assay [1], the target named is Ba/F3-EGFR-L858R C797S cells (Homo sapiens, UniProt P00533, C797S/L858R, cells depend on it). The experiment in a line: Ba/F3 cell survival assay, EGFR L858R C797S. Conditions: aquired resistance space; Table 8; read-out: BA/F3 (EGFR L858R C797S) IC50. It counts as cell-based.
Chain of Ba/F3-EGFR-L858R C797S cells (P00533 whole entry C797S/L858R): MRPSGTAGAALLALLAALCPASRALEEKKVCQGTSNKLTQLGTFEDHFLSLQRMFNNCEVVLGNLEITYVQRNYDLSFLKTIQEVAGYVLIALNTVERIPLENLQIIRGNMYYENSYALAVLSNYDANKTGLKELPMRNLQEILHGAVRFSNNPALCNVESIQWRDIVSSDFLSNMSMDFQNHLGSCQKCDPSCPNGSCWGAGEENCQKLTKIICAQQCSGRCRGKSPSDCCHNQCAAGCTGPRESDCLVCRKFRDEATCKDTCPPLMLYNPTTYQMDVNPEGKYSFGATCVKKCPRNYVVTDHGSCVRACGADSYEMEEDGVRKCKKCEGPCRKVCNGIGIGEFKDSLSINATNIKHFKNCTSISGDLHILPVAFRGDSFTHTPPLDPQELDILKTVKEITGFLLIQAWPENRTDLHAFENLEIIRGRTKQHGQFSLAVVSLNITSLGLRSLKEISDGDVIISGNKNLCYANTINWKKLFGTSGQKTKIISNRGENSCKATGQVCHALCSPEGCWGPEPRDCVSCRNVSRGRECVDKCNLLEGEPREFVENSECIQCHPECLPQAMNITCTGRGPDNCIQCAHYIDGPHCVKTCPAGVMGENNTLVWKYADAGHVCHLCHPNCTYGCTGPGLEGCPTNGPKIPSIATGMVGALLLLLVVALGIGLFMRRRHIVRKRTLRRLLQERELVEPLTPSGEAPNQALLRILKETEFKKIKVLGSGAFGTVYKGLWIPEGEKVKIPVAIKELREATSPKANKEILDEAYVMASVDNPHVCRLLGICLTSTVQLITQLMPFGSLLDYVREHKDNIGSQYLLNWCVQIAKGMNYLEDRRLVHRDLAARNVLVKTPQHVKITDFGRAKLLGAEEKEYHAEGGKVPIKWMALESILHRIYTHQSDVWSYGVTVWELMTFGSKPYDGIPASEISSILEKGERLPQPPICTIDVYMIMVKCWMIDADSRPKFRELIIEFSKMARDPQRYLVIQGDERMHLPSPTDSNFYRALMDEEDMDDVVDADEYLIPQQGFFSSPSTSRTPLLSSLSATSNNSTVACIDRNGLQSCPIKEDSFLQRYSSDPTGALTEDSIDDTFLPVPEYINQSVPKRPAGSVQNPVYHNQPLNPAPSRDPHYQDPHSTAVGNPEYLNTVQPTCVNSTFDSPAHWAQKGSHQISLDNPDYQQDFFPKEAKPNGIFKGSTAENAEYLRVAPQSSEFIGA

“And” between values parts separate entries of the source, which are not always exact repeats. Equal entries are not always repeated.

Chain of Ba/F3-EGFR-L858R cells (P00533 whole entry L858R): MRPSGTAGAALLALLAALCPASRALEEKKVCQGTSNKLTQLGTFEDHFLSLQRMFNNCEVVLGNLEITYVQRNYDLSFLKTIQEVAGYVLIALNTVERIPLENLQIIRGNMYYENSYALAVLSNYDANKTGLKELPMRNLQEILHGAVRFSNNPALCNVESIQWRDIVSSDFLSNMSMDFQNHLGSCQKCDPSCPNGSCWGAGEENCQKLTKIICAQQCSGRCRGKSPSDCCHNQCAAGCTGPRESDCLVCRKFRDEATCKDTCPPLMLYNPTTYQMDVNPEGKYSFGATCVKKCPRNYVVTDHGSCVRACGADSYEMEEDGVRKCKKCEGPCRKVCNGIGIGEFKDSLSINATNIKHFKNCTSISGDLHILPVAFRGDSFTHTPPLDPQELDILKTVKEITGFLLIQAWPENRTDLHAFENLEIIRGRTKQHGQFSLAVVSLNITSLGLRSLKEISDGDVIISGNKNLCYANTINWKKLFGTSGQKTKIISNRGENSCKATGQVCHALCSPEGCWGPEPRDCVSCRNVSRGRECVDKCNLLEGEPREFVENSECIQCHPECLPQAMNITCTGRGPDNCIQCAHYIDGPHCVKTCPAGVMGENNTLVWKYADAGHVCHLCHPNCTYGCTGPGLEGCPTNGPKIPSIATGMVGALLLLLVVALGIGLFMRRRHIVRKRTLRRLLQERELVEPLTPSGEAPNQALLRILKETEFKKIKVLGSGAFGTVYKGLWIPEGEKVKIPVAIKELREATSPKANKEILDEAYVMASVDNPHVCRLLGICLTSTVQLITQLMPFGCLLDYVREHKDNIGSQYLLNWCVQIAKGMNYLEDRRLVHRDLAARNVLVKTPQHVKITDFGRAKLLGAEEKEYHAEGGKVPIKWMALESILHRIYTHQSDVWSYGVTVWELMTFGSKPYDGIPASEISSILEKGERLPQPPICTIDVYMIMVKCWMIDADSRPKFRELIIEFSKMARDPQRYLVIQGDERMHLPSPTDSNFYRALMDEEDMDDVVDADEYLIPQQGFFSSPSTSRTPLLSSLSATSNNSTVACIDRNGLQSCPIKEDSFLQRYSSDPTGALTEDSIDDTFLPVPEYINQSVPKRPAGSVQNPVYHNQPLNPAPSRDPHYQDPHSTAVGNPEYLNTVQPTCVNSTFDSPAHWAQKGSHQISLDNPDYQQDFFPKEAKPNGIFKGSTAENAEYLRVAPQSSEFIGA

What is called IC50 is the concentration at which inhibition is half-maximal. The low end stands for higher potency, the high end for lower potency. As for `COc1c(Cl)cccc1Nc1c(-c2ccncc2OCCC(C)OC)[nH]c2c1C(=O)N[C@H](C)C2` (single isomer, unassigned) [Example 121], the GI50 on Ba/F3-EGFR-L858R cells was found to be 1.17 nM; in assay [1] it was 1.07 nM. This compound came in with a 50% inhibitory concentration (IC50) against Bub1 of 1830 nM.
On the same counts, the results for `COc1c(Cl)cccc1Nc1c(-c2ccncc2OC[C@@H]2CCCO2)[nH]c2c1C(=O)NC1(CC1)C2` [Example 113, 3′-(3-chloro-2-methoxyanilino)-2′-(3-{[(2S)-oxolan-2-yl]methoxy}pyridin-4-yl)-1′,7′-dihydrospiro[cyclopropane-1,6′-pyrrolo[3,2-c]pyridin]-4′(5′H)-one] are 3.71 nM, 5.07 nM and 761 nM.
In the case of `COc1c(Cl)cccc1Nc1c(-c2ccncc2OCCC2CCCCO2)[nH]c2c1C(=O)N[C@H](C)C2` (single isomer, unassigned) [Example 87], the figures for the GI50 (on Ba/F3-EGFR-L858R cells; in assay [1]) were 1.29 nM and 1.38 nM, respectively. The IC50 against Bub1 was 19100 nM and > 20000 nM.
Regarding `COc1c(Cl)cccc1Nc1c(-c2ccncc2OCC2COCCO2)[nH]c2c1C(=O)NCC2C` (single isomer, unassigned) [Example 34, 3-(3-chloro-2-methoxy-anilino)-2-[3-(1,4-dioxan-2-ylmethoxy)-4-pyridyl]-7-methyl-1,5,6,7-tetrahydropyrrolo[3,2-c]pyridin-4-one], the GI50 at Ba/F3-EGFR-L858R cells stood at 2.76 nM; in assay [1], 3.07 nM. Besides, the IC50 against Bub1 is greater than 20000 nM.
The corresponding values for `Cc1c(Cl)cccc1Nc1c(-c2ccncc2OCC2COCCO2)[nH]c2c1C(=O)NCC2C` (single isomer, unassigned) [Example 67, 3-(3-chloro-2-methyl-anilino)-2-[3-(1,4-dioxan-2-ylmethoxy)-4-pyridyl]-7-methyl-1,5,6,7-tetrahydropyrrolo[3,2-c]pyridin-4-one] are 3.16 nM, 2.49 nM and 10100 nM.
For the compound `COCC(C)Oc1cnccc1-c1[nH]c2c(c1Nc1cccc(Cl)c1OC)C(=O)N[C@@H]1CCC[C@H]21` (single isomer, unassigned) [Example 51], the GI50 (on Ba/F3-EGFR-L858R cells; in assay [1]) was 1.32 nM each time. For the same compound, the midpoint of inhibition against Bub1, the IC50, lay at 7090 nM.
